Assay results as given in patent publication US20090093423A2, “NOVEL 2-SUBSTITUTED METHYL PENAM DERIVATIVES” (Orchid Chemicals and Pharmaceuticals Limited, priority 2006, published 2009).

Biological target: Penicillinase enzyme
Experiment: β-Lactamase assay (Centa substrate)
Type: biochemical
Conditions: FIG. 1
Experimental: Representative novel compounds were subjected to β-lactamase assay to determine and compare their IC50 with that of Tazo as described elsewhere (Bebrone et. al, 2001, Antimicrob. Agents. Chemother. 45(6): 1868-1871; Jamieson et. al, 2003, Antimicrob. Agents. Chemother. 47(5): 1652-1657). Briefly enzyme inhibition assays with Tazo acid as the standard inhibitor for % inhibitions & IC50 value with optimized concentrations of Penicillinase enzyme & Centa β-lactamase substrate were performed.

| IC50 compared with Tazo | SMILES |
| --- | --- |
| comparatively lower | C=CC[n+]1ccn(C[C@@]2(C)[C@H](C(=O)[O-])N3C(=O)C[C@H]3S2(=O)=O)n1 [Example 4, 1-{[(2S,3S,5R)-2-Carboxy-3-methyl-4,4,7-trioxo-4-thia-1-azabicyclo[3.2.0]hept-3-yl]methyl}-3-allyl-1H-1,2,3-triazol-3-ium] |
| three-fold lower | CC[n+]1ccn(C[C@@]2(C)[C@H](C(=O)[O-])N3C(=O)C[C@H]3S2(=O)=O)n1 [Example 2, 1-{[(2S,3S,5R)-2-Carboxy-3-methyl-4,4,7-trioxo-4-thia-1-azabicyclo[3.2.0]hept-3-yl]methyl}-3-ethyl-1H-1,2,3-triazol-3-ium] |
| comparatively lower | C[C@]1(Cn2cc[n+](CC(N)=O)n2)[C@H](C(=O)[O-])N2C(=O)C[C@H]2S1(=O)=O [Example 5, 1-{[(2S,3S,5R)-2-Carboxy-3-methyl-4,4,7-trioxo-4-thia-1-azabicyclo[3.2.0]hept-3-yl]methyl}-3-(2-amino-2-oxoethyl)-1H-1,2,3-triazol-3-ium] |
| comparatively lower | C[C@]1(Cn2cc[n+](CC(=O)N3CCOCC3)n2)[C@H](C(=O)[O-])N2C(=O)C[C@H]2S1(=O)=O [Example 7, 1-{[(2S,3S,5R)-2-Carboxy-3-methyl-4,4,7-trioxo-4-thia-1-azabicyclo[3.2.0]hept-3-yl]methyl}-3-(2-morpholin-4-yl-2-oxoethyl)-1H-1,2,3-triazol-3-ium] |
